Patent US20120270935A1, “FORMULATIONS” (priority 2009, published 2012)

Experiments:
[1] = system: P. acnes; experiment: Agar dilution MIC assay, panel of propionibacterium strains; type: cell-based, Propionibacterium acnes
Description: This is a standard international method for quantitatively assessing the antimicrobial activity of a compound in a solid medium. The test compound was prepared to 40× the highest concentration required (eg 10 mg/ml for a final concentration of […]) and a series of doubling dilutions were performed in a suitable solvent. A set amount of these antimicrobial stock solutions was then added to molten agar medium (ca 55° C.), mixed thoroughly, poured into sterile Petri dishes and allowed to cool/set. The culture medium was as described above.
A Multipoint™ Inoculator (AQS Manufacturing Ltd, UK) was used to inoculate the plates by spotting the inocula onto the surface of the agar, delivering approximately 1 to 2 μl per spot (yielding 10^5 CFU (colony forming units) per spot).
The plate(s) were then incubated under the conditions described above, following which they were examined visually for signs of bacterial growth. The MIC value was ascertained when there was a marked reduction in, or total loss of, growth on the test plate at the lowest concentration as compared to that of the growth on the control plate.
The assays were conducted in triplicate and included a positive control (culture medium, diluting solvent and inoculum).
The activity (MIC by agar dilution) of copper usnate was determined against a panel of different propionibacterium strains. The culture medium was Wilkins-Chalgren agar, at pH 6.0. DMSO was used as the solvent. All tests were performed in triplicate.

[2] = system: S. pyogenes ATCC 12344; experiment: MBC assay; type: cell-based, Streptococcus pyogenes; conditions: Mueller-Hinton broth pH 7.0
Source text: (a) staphylococci. The Staphylococcus aureus strain used was ATCC 29213. S. aureus and other staphylococci are common causes of a wide range of skin, skin structure and wound infections; S. aureus is also known to exacerbate eczema. The ATCC 29213 strain is known to be susceptible to beta-lactam antibiotics such as methicillin. The Staphylococcus epidermidis strain used was NCTC 11047. Staph. epidermidis forms part of the resident flora of skin and is an opportunistic pathogen which can cause biofilms to grow for instance on plastic surgical implants such as catheters. Unless otherwise stated, the staphylococci were cultured and maintained on Mueller-Hinton Medium (agar and broth) at pH 7.2; cultures were incubated aerobically at 37° C. for 19-20 hours, at pH 7 (±0.2). (b) C. striatum NCTC 764. Corynebacterium striatum is closely related to organisms (aerobic diphtheroids of the genus Corynebacterium) that cause body odour. It was cultured and maintained on Mueller-Hinton medium (agar and broth). All cultures were incubated aerobically at 37° C. for 72 hours, at pH 7 (±0.2). (c) streptococci. The strains tested were S. mutans ATCC 25175 and S. pyogenes ATCC 12344. S. mutans is a Gram-positive, microaerophilic bacterium which plays a significant role in dental caries and in infective endocarditis. Streptococcus pyogenes is associated with skin, soft tissue, burn and wound infections. […]

[3] = system: S. pyogenes ATCC 12344; experiment: Disc diffusion assay (DDA); type: cell-based, Streptococcus pyogenes; conditions: 200 μg per disc; Mueller-Hinton agar pH 7.0; 48 hours at 37° C., 5% carbon dioxide
Source text: (a) staphylococci. The Staphylococcus aureus strain used was ATCC 29213. S. aureus and other staphylococci are common causes of a wide range of skin, skin structure and wound infections; S. aureus is also known to exacerbate eczema. The ATCC 29213 strain is known to be susceptible to beta-lactam antibiotics such as methicillin. The Staphylococcus epidermidis strain used was NCTC 11047. Staph. epidermidis forms part of the resident flora of skin and is an opportunistic pathogen which can cause biofilms to grow for instance on plastic surgical implants such as catheters. Unless otherwise stated, the staphylococci were cultured and maintained on Mueller-Hinton Medium (agar and broth) at pH 7.2; cultures were incubated aerobically at 37° C. for 19-20 hours, at pH 7 (±0.2). (b) C. striatum NCTC 764. Corynebacterium striatum is closely related to organisms (aerobic diphtheroids of the genus Corynebacterium) that cause body odour. It was cultured and maintained on Mueller-Hinton medium (agar and broth). All cultures were incubated aerobically at 37° C. for 72 hours, at pH 7 (±0.2). (c) streptococci. The strains tested were S. mutans ATCC 25175 and S. pyogenes ATCC 12344. […] The diameter of this zone of “inhibition” was measured using a ProtoCOL™ automated zone sizer (Synbiosis, Cambridge, UK). […]

CC(=O)c1c([O-])c(C)c([O-])c2c1OC1=CC(=O)C(C(C)=O)C(=O)C12C.[Cu+2] (stereo not shown) [Copper usnate, copper (II) usnate]
MIC ([1]; P. acnes NCTC 737, mutation None, resistance phenotype None): 0.49 µg/mL | MIC ([1]; P. acnes PRP-002, mutation 1058/2058, resistance Tet/MLS): 0.49 µg/mL | MIC ([1]; P. acnes PRP-003, mutation 1058, resistance Tet): 0.49 µg/mL | MIC ([1]; P. acnes PRP-004, mutation 1058, resistance Tet): 0.49 µg/mL | MIC ([1]; P. acnes PRP-007, mutation Unknown, resistance Clin): 0.49 µg/mL | MIC ([1]; P. acnes PRP-010, Erm X, resistance MLSK): 0.49 µg/mL | MIC ([1]; P. acnes PRP-017, mutation 2058, resistance MLS): 0.49 µg/mL | MIC ([1]; P. acnes PRP-023, Erm X, resistance MLSK): 0.49 µg/mL | MIC ([1]; P. acnes PRP-026, mutation 2059, resistance MLS): 0.49 µg/mL | MIC ([1]; P. acnes PRP-039, mutation 2059, resistance Tet/MLS): 0.49 µg/mL | MIC ([1]; P. acnes PRP-046, mutation None, resistance None): 0.49 µg/mL | MIC ([1]; P. acnes PRP-059, mutation 2058, resistance MLS): 0.49 µg/mL | MIC ([1]; P. acnes PRP-101, mutation 1058/2059, resistance Tet/MLS): 0.49 µg/mL | MIC ([1]; P. acnes PRP-102, mutation 1058/2059, resistance Tet/MLS): 0.49 µg/mL | MBC [2]: 0.98 µg/mL | DDA zone diameter [3]: 31.3 ± 0.6 mm
